Laboratory results taken from PMC12040169 (PLOS Biology, 2025).

Test: in vitro
Settings: human, hela cells, % viability

SMILES	viability at 28.5 h, 10 µM [%]
COc1ccccc1N/C(=N\OCc1ccc(Cl)cc1Cl)c1nonc1N [CBK018391]	91
Cc1ccc2c(c1)C(=O)CC1(CCC3C(C(=O)N4CCCC4)C31)O2 (stereo not shown) [CBK284951]	98.3
O=C(CC(Nc1ccc2ccccc2c1)c1ccncc1)c1ccc(Br)cc1 (stereo not shown) [CBK262209]	98.7
O=C(O)COCC(=O)N1CCN(CCc2ccccc2)CC1 [CBK270298]	107
COc1cccc(CC(=O)Nc2ncccc2O)c1 [CBK305047]	95.3
CC(C)Nc1ncnc2scc(-c3cccs3)c12 [CBK017085]	85.9
Cc1ccc(S(=O)(=O)Nc2ccc(Nc3cc(-c4cccc5oc6ccccc6c45)ncn3)cc2)cc1 [CBK090977]	91.1
Cc1ccc(S(=O)(=O)CCOc2nc3c(C(F)(F)F)cc(C4CC4)nc3o2)cc1 [CBK269267]	111
Clc1cccc(Cl)c1CN(Cc1ccccc1)c1ncnc2[nH]cnc12 [CBK266571]	95.2
N#CCCn1cc(C(=O)N2CCOCC2)c(-c2ccccc2)n1 [CBK306207]	86
COCCNc1cc(-c2ccc(Cl)cc2)ncn1 [CBK090797]	96.3
Cc1cccc(-c2ocnc2C(=O)NC(C)c2ccccn2)c1 (stereo not shown) [CBK282427]	87.4
Fc1cccc(-c2nccnc2NCc2cccnc2)c1 [CBK037633]	88.3
COc1ccc(CCCNC(=N)N)cc1Cl [CBK261404G]	93.4
N#CCC(=O)Nc1ccc(F)c(Cl)c1 [CBK085905]	95.4
Cc1cn([C@H]2C[C@@H](O)[C@@H](CI)O2)c(=O)[nH]c1=O [CBK201197]	96.9
COc1cccc(Oc2nccnc2-c2ccsc2)c1 [CBK106762]	92.1
CC(C)c1nccn1CCCn1cncc1-c1cnn(C)c1 [CBK281812]	104
Cc1cc2ccccc2n1CCC(=O)NC1CCCOC1 (stereo not shown) [CBK283152]	91.1
O=S(=O)(Nc1ccc2nsnc2c1)c1ccc(Br)cc1C(F)(F)F [CBK062233]	115
Cn1cc(CN2CCN(CC3(c4ccccc4)CC3)CC2)cn1 [CBK282794]	109
Cc1ncccc1COC(=O)N1CCSCC1 [CBK200156]	104
COc1ccc(CCNC(=O)N2CCC(C(=O)O)CC2)cc1 [CBK156073]	75.6

SMILES	viability at 28.5 h, 10 µM [%]
CCCc1ccc(C(C)NC(=O)C2CC2C)cc1 (stereo not shown) [CBK057847]	82.4
CC1=CC(C)(C)N(CC(=O)c2ccc([N+](=O)[O-])cc2)c2c(C)cccc21 [CBK261652]	103
O=C(O)CCC(C(=O)O)N1C(=O)c2cc(Cl)c(Cl)cc2C1=O (stereo not shown) [CBK264156]	113
COc1ccc(C(C)C)cc1-c1cnc2[nH]c(=O)n(C3CC3)c2n1 [CBK064915]	91.2
CCCc1cc(=O)oc2cc(OCc3ccc(C(=O)O)o3)ccc12 [CBK264786]	108
O=S(=O)(NCc1cccnc1)c1ccc(Cl)c(Cl)c1Cl [CBK264032]	91.1
CCCNC(=O)N1CCC(n2c(C)nc3cccnc32)CC1 [CBK282292]	88.9
CCc1c(C)nc2c(C(=O)NC(CC)COC)cnn2c1C (stereo not shown) [CBK162133]	97.5
CNc1cc(NS(=O)(=O)c2ccc(N)cc2)nc(NC)n1 [CBK011865C]	96.1
CCCC(SCC)C(N)=O (stereo not shown) [CBK020895]	99.1
COc1cc(C)c(CN2CCN(C(=O)COc3cc4ccccc4cc3C(=O)O)CC2)cc1OC [CBK296968]	99.6
CN1CCC(N2CC[C@H](c3nnc(-c4cncn4C)o3)C2)CC1 [CBK289403]	117
COCc1nnc(S)n1-c1cccc(OC)c1 [CBK288424]	87.7
Cc1ccc([N+](=O)[O-])cc1NC(=O)CN(Cc1ccc(Cl)cc1)S(C)(=O)=O [CBK267981]	87.8
Cc1ccc(S(=O)(=O)N2CCOCC2)cc1C(=O)O [CBK262256]	115
O=C(Nc1ccccc1N1CCNCC1)c1ccoc1 [CBK029442T]	96.2
COc1ccc2c(c1)C1(CC(=O)N(CCC3CCCCC3)C1=O)C(=O)N2C (stereo not shown) [CBK075147]	120
Cc1cc(C[C@@H]2COC[C@H]2NCc2ccc(Cl)c(Cl)c2)on1 [CBK285400]	88
COc1nccnc1/C=C/c1ccccc1 [CBK106876]	115
CSc1nnc(-c2cccc(C)c2)n1CC(C)C [CBK076764T]	89.1
CCc1nc2c(OCC3CCCCO3)cccn2c1N(C)C(=O)c1ccc2c(c1)OCO2 (stereo not shown) [CBK147860]	82.9
COc1ccc(Nc2ccc(-c3ccc(C(=O)O)cc3)cn2)cc1 [CBK037654]	95.2
COc1ccc(C(C)C)cc1-c1cc2ncccc2nc1N [CBK081202]	89.3

SMILES	viability at 28.5 h, 10 µM [%]
Cc1nn(C(C)CC(=O)NC2CCCOC2)c(C)c1C (stereo not shown) [CBK283133]	112
COc1cc(/C=N/NC(=O)c2cccc([N+](=O)[O-])c2)cc(OC)c1O [CBK262172]	83.1
Cc1n[nH]cc1CN(CCCn1ccnc1)Cc1cccc(F)c1 [CBK282650]	90.1
CC(C)c1ccc(S(=O)(=O)Nc2ccc3[nH]c(C(F)(F)F)nc3c2)cc1 [CBK044470]	90.3
CCOC(=O)N/N=C1\CCSc2sccc21 [CBK006300]	110
Cc1cccc(-c2ccc3c(c2)C(=O)N2CC[C@H](NC(=O)N4CCOCC4)[C@H]2C(=O)N3)c1C [CBK289347]	88.1
Cn1cc(-c2nccnc2OCCOc2ccccc2)cn1 [CBK107080]	94.9
COc1ccc(OCC(=O)NNC(=O)c2cnccn2)cc1 [CBK262619]	98.1
Nc1c(-c2cc(F)cc(F)c2)cnc2ncccc12 [CBK083677]	111
Cn1c2c(c(=O)n(C)c1=O)[C@@H]1C(C[C@](O)(CO)[C@H]1O)C1(CCC1)N2 (stereo partly shown) [CBK303264]	118
CC(=O)Nc1cccc(NC(=O)c2cc(-c3ccccn3)nc3ccc(Cl)cc23)c1 [CBK267747]	95.1
O=C(Nc1ccc(N2CCNCC2)nc1)c1cccnc1 [CBK029439T]	95.1
O=C(O)CSc1n[nH]c(=O)[nH]c1=O [CBK217819]	94.8
O=S(=O)(c1ccc2ccccc2c1)N1CCN(C2CCCCCCC2)CC1 [CBK264186G]	98.3
Cn1c(=O)c2[nH]c(-c3ccc(OCC(=O)NCCc4ccccc4)cc3)nc2n(C)c1=O [CBK269092]	97.9
COc1ccc(CN2CCN(C(=O)c3ccccc3F)CC2)c(OC)c1 [CBK033601]	125
CC(C)(C)C1=CC2=NC3(CCCCCCC3)[C@@H]3C[C@@H](O)[C@@H](O)[C@@H]3N2O1 [CBK303256]	113
Cc1ccn2cc(C(=O)NCCSc3nccn3C)nc2c1 [CBK281417]	104
CCC(C)NC(=O)Cn1c(C2CCCNC2)cc2cccnc21 (stereo not shown) [CBK285085]	109
CCN(CC)S(=O)(=O)c1cc(C(=O)Nc2ccccc2C(=O)O)c(Cl)cc1Cl [CBK265731]	125
O=C(NCCCNC1CCc2[nH]c3ccccc3c2C1)c1cccc(Br)c1 (stereo not shown) [CBK107130T]	86.9
Cc1cc(C(=O)Nc2ccc(S(=O)(=O)Nc3onc(C)c3C)cc2)no1 [CBK268166]	95.3
CC(C)C(=O)Nc1ccc2c(-c3ccc4c(c3)OCCCO4)ccnc2n1 [CBK073675]	96.7

SMILES	viability at 28.5 h, 10 µM [%]
CC(C)(C)OC(=O)NNC(=S)Nc1ccc(S(N)(=O)=O)cc1 [CBK267107]	100
COc1ccccc1-c1cc(C(F)F)nc(S)c1C#N [CBK288358]	88.8
O=C(NCc1cccnc1)c1ccc(CSc2ccccc2)cc1 [CBK300544]	101
COC(=O)c1sccc1NC(=O)c1ccccc1Cl [CBK066860]	65.5
Cc1ccc([N+](=O)[O-])cc1NS(=O)(=O)Cc1ccc(Cl)cc1 [CBK111359]	71.8
CCOC(=O)c1c(NC(=O)C2CC(Cl)=CCC2C(=O)O)sc2c1CCCCC2 (stereo not shown) [CBK264263]	90.2
CCOC(=O)N1CCC(NC(=O)N(Cc2cccnc2)Cc2ccc3c(c2)OCO3)CC1 [CBK158897]	95.4
COc1ccc(S(=O)(=O)Nc2sccc2C#N)cc1 [CBK034732]	110
Cc1cc(C(F)(F)F)n2nc(C3CCCN3C(=O)C(C)C)cc2n1 (stereo not shown) [CBK284685]	93
OCc1ccc(-c2nccnc2NCc2ccccn2)cc1 [CBK037088]	106
CCOc1ccc(/N=c2\scc(-c3ccc(OC)c(Br)c3)n2CCc2ccccc2)cc1 [CBK263654B]	74.7
N=C(N)NCC(=O)N(CCCc1cc(C(F)(F)F)cc(C(F)(F)F)c1)c1ccc2c(c1)OCO2 [CBK000702T]	80.1
O=S(=O)(NCC(Nc1cccc2ccccc12)c1ccccc1)c1ccc(Cl)cc1 (stereo not shown) [CBK264087]	90.3
CN(CC1OCCc2ccccc21)C(=O)CCC1CCCO1 (stereo not shown) [CBK282030]	87.1
Cc1cc(C2CCCCCN2Cc2cc(Cl)ccc2O)on1 (stereo not shown) [CBK281948]	89.2
COC1CCC(C(=O)Nc2cnc(-c3cccc(OC(F)(F)F)c3)c(-c3cccnc3)n2)CC1 (stereo not shown) [CBK036754]	97.4
CC(C)NC(=O)N1C[C@@H]2C[C@H](C1)c1ccc(-c3cccnc3)c(=O)n1C2 [CBK289184]	97.5
CC(Cc1ccccn1)NC(=O)C1CC2C=CC1C21CC1 (stereo not shown) [CBK282070]	90.7
CCOc1cccc(N2C(=O)CC(N3CCN(c4ccccn4)CC3)C2=O)c1 (stereo not shown) [CBK262829]	105
COc1ccc(-n2c3c(cc(C(=O)Nc4ccccc4Br)c2=O)C(=O)CCC3)cc1 [CBK293945]	95.7
COc1ccc(-n2c(SCCc3ccccc3)nnc2-c2ccncc2)cc1 [CBK265618]	85.3

Same assay, conditions: human, hela cells, % viability, bulk resorufin, single well

SMILES	viability at 28.5 h, 10 µM [%]
CCc1ccccc1N1C(=O)NC(=O)/C(=C\c2ccc(OCC(=O)O)c(Cl)c2)C1=O [CBK264107]	95.2
